Experiments:
[1] = tested on: Human Foreskin Fibroblasts (HFF); assay: Fibroblast viability in the in vitro burn model (MTS / trypan blue exclusion); type: cell-based; conditions: thermally challenged fibroblasts (50° C., 7.5 minutes), Icilin pre-treatment 0.0002-0.02 nM in DMSO, vs untreated burned fibroblasts, about 24 hours after burning
Method: Human Foreskin Fibroblasts (HFF) (ATCC, Manassas, Va.) were cultured in Dulbecco's Modified Eagle Medium Nutrient Mixture F-12 with 10% Fetal Bovine Serum, 1% penicillin streptomycin. 0.05% Trypsin EDTA was used for subculture (Invitrogen, Grand Isl., N.Y.). Cells were incubated at 370 Celsius and 5% CO2, and grown in 96 well, T25 or T75 Corning Tissue Culture vessels. When cells became confluent, they were trypsinized using 0.05% trypsin/EDTA. Cells used for the various assays were plated at 0.2×10^6 cells/mL unless otherwise noted. Fibroblasts were selected due to their critical role in skin wound recovery. Fibroblasts were fluorescently imaged with a Nikon Eclipse TS100 Microscope (Nikon, Melville, N.Y.). An in vitro burn model was created to replicate the severity of a third-degree burn. Cells were plated in a Polystyrene 96 Well Plate (100 μL per well) then burned in a VWR Incubating Micro Plate Shaker (VWR, Bridgeport, N.J.) via its adjustable heat setting. Thermal trauma (burning) was determined to take place at 50° C. for a total of 7.5 minutes (FIG. 1b). This temperature represented cell viability >50% 24 hours after the thermal injury treatment. […] Proliferation was determined using the MTS assay. […] The 96-well plate was read to measure absorbance at 490 nm using a microplate reader (BioTek, Winooski, Vt.). Viability was determined by trypan blue exclusion assays. […]

Interleukin-6 (IL-6) = assay: Indirect ELISA of IL-6 expression in fibroblasts; type: cell-based, Human
Method: (§1) Human Foreskin Fibroblasts (HFF) (ATCC, Manassas, Va.) were cultured in Dulbecco's Modified Eagle Medium Nutrient Mixture F-12 with 10% Fetal Bovine Serum, 1% penicillin streptomycin. 0.05% Trypsin EDTA was used for subculture (Invitrogen, Grand Isl., N.Y.). Cells were incubated at 370 Celsius and 5% CO2, and grown in 96 well, T25 or T75 Corning Tissue Culture vessels. When cells became confluent, they were trypsinized using 0.05% trypsin/EDTA. Cells used for the various assays were plated at 0.2×10^6 cells/mL unless otherwise noted. Fibroblasts were selected due to their critical role in skin wound recovery. Fibroblasts were fluorescently imaged with a Nikon Eclipse TS100 Microscope (Nikon, Melville, N.Y.). An in vitro burn model was created to replicate the severity of a third-degree burn. Cells were plated in a Polystyrene 96 Well Plate (100 μL per well) then burned in a VWR Incubating Micro Plate Shaker (VWR, Bridgeport, N.J.) via its adjustable heat setting. Thermal trauma (burning) was determined to take place at 50° C. for a total of 7.5 minutes (FIG. 1b). This temperature represented cell viability >50% 24 hours after the thermal injury treatment. Temperature of plate was confirmed using a Fluke 63 Infrared Thermometer (Fluke, Phoenix, Ariz.). […] The 96-well plate was read to measure absorbance at 405 nm in a microplate reader (BioTek, Winooski, Vt.).

Interleukin-8 (IL-8) = assay: Indirect ELISA of IL-8 expression in fibroblasts; type: cell-based, Human; conditions: non-thermally challenged and thermally challenged fibroblasts, Icilin 0.0002-0.02 nM
Method: as §1

Interleukin-1β (IL-1β) = assay: Indirect ELISA of IL-1β expression in fibroblasts; type: cell-based, Human
Method: as §1

[2] = tested on: Tumor Necrosis Factor-α (TNF-α); assay: Indirect ELISA of TNF-α expression in fibroblasts; type: cell-based, Human
Method: as §1

[3] = tested on: Reactive Oxygen Species (ROS); assay: ROS-Glo H2O2 assay of Reactive Oxygen Species in fibroblasts; type: cell-based, Human
Method: Human Foreskin Fibroblasts (HFF) (ATCC, Manassas, Va.) were cultured in Dulbecco's Modified Eagle Medium Nutrient Mixture F-12 with 10% Fetal Bovine Serum, 1% penicillin streptomycin. 0.05% Trypsin EDTA was used for subculture (Invitrogen, Grand Isl., N.Y.). Cells were incubated at 370 Celsius and 5% CO2, and grown in 96 well, T25 or T75 Corning Tissue Culture vessels. When cells became confluent, they were trypsinized using 0.05% trypsin/EDTA. Cells used for the various assays were plated at 0.2×10^6 cells/mL unless otherwise noted. Fibroblasts were selected due to their critical role in skin wound recovery. Fibroblasts were fluorescently imaged with a Nikon Eclipse TS100 Microscope (Nikon, Melville, N.Y.). An in vitro burn model was created to replicate the severity of a third-degree burn. Cells were plated in a Polystyrene 96 Well Plate (100 μL per well) then burned in a VWR Incubating Micro Plate Shaker (VWR, Bridgeport, N.J.) via its adjustable heat setting. Thermal trauma (burning) was determined to take place at 50° C. for a total of 7.5 minutes (FIG. 1b). This temperature represented cell viability >50% 24 hours after the thermal injury treatment. […] ROS was measured through ROS-GIo™ H2O2 Assay (Promega, Madison, Wis.). […] The well plate was then incubated at room temperature for 20 minutes then measured for luminescence (see FIG. 7).

[4] = tested on: Transient receptor potential cation channel subfamily M member 8 (TRPM8); assay: TRPM8 expression levels in fibroblasts; type: cell-based, Human
Method: Human Foreskin Fibroblasts (HFF) (ATCC, Manassas, Va.) were cultured in Dulbecco's Modified Eagle Medium Nutrient Mixture F-12 with 10% Fetal Bovine Serum, 1% penicillin streptomycin. 0.05% Trypsin EDTA was used for subculture (Invitrogen, Grand Isl., N.Y.). Cells were incubated at 370 Celsius and 5% CO2, and grown in 96 well, T25 or T75 Corning Tissue Culture vessels. When cells became confluent, they were trypsinized using 0.05% trypsin/EDTA. Cells used for the various assays were plated at 0.2×10^6 cells/mL unless otherwise noted. Fibroblasts were selected due to their critical role in skin wound recovery. Fibroblasts were fluorescently imaged with a Nikon Eclipse TS100 Microscope (Nikon, Melville, N.Y.). An in vitro burn model was created to replicate the severity of a third-degree burn. Cells were plated in a Polystyrene 96 Well Plate (100 μL per well) then burned in a VWR Incubating Micro Plate Shaker (VWR, Bridgeport, N.J.) via its adjustable heat setting. Thermal trauma (burning) was determined to take place at 50° C. for a total of 7.5 minutes (FIG. 1b). This temperature represented cell viability >50% 24 hours after the thermal injury treatment. Temperature of plate was confirmed using a Fluke 63 Infrared Thermometer (Fluke, Phoenix, Ariz.). […]

TRPM8 = TRPM8 (Homo sapiens, UniProt Q7Z2W7); conditions: super-cooling chemical; comparison with menthol; cited from earlier work
TRPM8, sequence (Q7Z2W7 whole entry, species assumed): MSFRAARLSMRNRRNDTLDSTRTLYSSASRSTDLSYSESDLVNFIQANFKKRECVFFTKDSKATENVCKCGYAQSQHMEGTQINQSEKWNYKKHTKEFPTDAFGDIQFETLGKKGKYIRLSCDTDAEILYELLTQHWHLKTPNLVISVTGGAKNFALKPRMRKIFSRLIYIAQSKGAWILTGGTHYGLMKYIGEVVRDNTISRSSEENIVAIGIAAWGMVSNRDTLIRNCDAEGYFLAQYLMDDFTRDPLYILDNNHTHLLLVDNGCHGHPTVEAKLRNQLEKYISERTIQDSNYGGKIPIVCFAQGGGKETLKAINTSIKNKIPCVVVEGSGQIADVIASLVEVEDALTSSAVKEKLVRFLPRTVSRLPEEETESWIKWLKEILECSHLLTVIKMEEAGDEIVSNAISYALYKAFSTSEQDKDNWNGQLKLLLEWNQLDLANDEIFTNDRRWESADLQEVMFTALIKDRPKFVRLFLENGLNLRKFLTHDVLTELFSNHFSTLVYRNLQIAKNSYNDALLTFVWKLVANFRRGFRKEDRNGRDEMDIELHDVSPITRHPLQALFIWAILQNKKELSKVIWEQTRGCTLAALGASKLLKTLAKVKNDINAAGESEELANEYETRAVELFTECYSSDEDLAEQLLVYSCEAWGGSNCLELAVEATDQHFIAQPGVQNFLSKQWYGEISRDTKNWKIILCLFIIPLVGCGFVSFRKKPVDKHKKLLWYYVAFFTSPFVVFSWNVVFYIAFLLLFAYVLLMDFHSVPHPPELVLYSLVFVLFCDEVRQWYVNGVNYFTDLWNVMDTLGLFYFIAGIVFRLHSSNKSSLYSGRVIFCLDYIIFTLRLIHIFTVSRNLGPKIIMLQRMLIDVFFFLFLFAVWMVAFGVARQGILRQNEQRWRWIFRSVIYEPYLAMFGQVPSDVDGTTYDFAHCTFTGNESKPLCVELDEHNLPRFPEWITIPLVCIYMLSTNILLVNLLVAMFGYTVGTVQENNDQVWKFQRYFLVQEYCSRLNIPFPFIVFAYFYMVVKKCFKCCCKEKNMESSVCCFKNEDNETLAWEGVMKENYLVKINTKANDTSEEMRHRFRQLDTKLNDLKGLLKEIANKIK

[5] = non-thermally challenged fibroblasts, all Icilin concentrations

- TRPM8 expression [4, 5]: significantly increased
SMILES: O=C1NC(c2cccc([N+](=O)[O-])c2)=CCN1c1ccccc1O [Icilin]
- fibroblast viability [1]: significantly higher than the untreated burned fibroblasts
- IL-6 expression (Interleukin-6 (IL-6); non-thermally challenged fibroblasts, Icilin 0.0002-0.02 nM): increased IL-6 expression
- IL-6 expression (Interleukin-6 (IL-6); thermally challenged fibroblasts, Icilin pre-treatment 0.0002-0.02 nM): significant decrease in IL-6 expression
- IL-8 expression (Interleukin-8 (IL-8)): no noteworthy effect on IL-8 expression
- IL-1β expression (Interleukin-1β (IL-1β); non-thermally challenged fibroblasts, increasing concentrations of Icilin): IL-1β expression also increases
- IL-1β levels compared with non-thermally challenged fibroblasts at the same Icilin concentration (Interleukin-1β (IL-1β); thermally challenged fibroblasts, Icilin pre-treatment, all concentrations): below the levels of the non-thermally challenged fibroblasts
- TNF-α expression ([2]; fibroblasts without thermal treatment, increasing Icilin concentrations): steady increase in TNF-α expression
- TNF-α expression ([2]; thermally challenged fibroblasts, Icilin pre-treatment, increasing concentrations): dropped significantly
- ROS levels [3, 5]: significantly reduces ROS levels
- ROS levels ([3]; thermally challenged fibroblasts, Icilin pre-treatment at 0.02 nM): essentially restore ROS levels of thermally challenged fibroblasts to their normal quantities
- TRPM8 expression ([4]; thermally challenged fibroblasts, Icilin pre-treatment): increase in TRPM8 expression was maintained
- potency relative to menthol (TRPM8): 200 times

Reference: patent publication US11660298B1, “Preventing thermal trauma by pre-treatment with Icilin” (priority 2019, dated 2023)
